Experimental data published in patent US7811819B2, “Cryopreservation of primate embryonic stem cells” (The University of Washington, priority 2005, dated 2010).

Assays:
H1 hESC [1] = assay: Toxicity of the DMSO cryoprotectant to hESC without freezing (Group 2 vs control Group 1); assay type: cell-based, human; conditions: DMSO 10% in freezing medium, straws held 20 minutes at room temperature, not frozen; Group 1 vs. 2; cells grown three days
Procedure: (§1) hESC culture. H1 hESC from passage 51 to 57 (WiCell, Madison, Wis., USA) were cultured in Knockout™ DMEM supplemented with GlutaMAX™ (2 mM), sodium pyruvate (1.0 mM), non-essential amino acids (0.1 mM), penicillin (50 u/ml), streptomycin (50 u/ml), Knockout™ serum replacer (15%) (all from Invitrogen, Carlsbad, Calif., USA) and β-mercaptoethanol (0.1 mM; Sigma, St. Louis, Mo., USA). hESC were grown on gelatinized tissue culture plates seeded with primary mouse embryonic fibroblasts that had been exposed to 3000 Rads γ-irradiation. To passage, cells were washed once with calcium and magnesium free phosphate buffered saline (PBS; Invitrogen, Carlsbad, Calif., USA) and then exposed to 1.2 u/ml dispase (Invitrogen, Carlsbad, Calif., USA) dissolved in PBS supplemented with 10% FBS until colonies began to lift from the plate. The cell layer was washed off the plate and mechanically dispersed using a plugged 9-inch Pasteur pipette or a 5 ml pipette. At this point, cells were divided into tubes for each group. The cells were then pelleted through centrifugation at 1200 rpm for 3 minutes, washed and pelleted again in culture medium (described above). […]
(§2) Calculation of Survival. Survival was calculated as combined colony number and colony size relative to Group 1, which was set at 100% survival. The horizontal diameters of 10 colonies were measured. […]

H1 hESC [2] = assay: Survival of hESC after slow, controlled-rate freezing and thaw (colony number and colony size relative to untreated control); assay type: cell-based, human; conditions: sucrose on thaw (cryoprotectant removal); concentration not given
Procedure: as §1, §2

SMILES | toxicity to the hESC (H1 hESC [1]) | effect on survival following thaw (H1 hESC [2])
C[S+](C)[O-] [DMSO] | does not appear toxic | 
OC[C@H]1O[C@@](CO)(O[C@H]2O[C@H](CO)[C@@H](O)[C@H](O)[C@H]2O)[C@@H](O)[C@@H]1O [Sucrose] |  | harmful to survival
